Results from US20260315604A1, “OTUB1 Small-Molecule Binders and OTUB1-recruiting Deubiquitinase-targeting Chimeras (DUBTACs)” (ICAHN SCHOOL OF MEDICINE AT MOUNT SINAI, priority 2023, published 2026).

These molecules were tested against T1, Human OTUB1 wild-type (Homo sapiens, UniProt Q96FW1) (assay: Covalent modification of OTUB1 (adduct formation), mass spectrometry-based assay (OTUB1 covalent binders; selected CFTR or cGAS based bivalent compounds)). Conditions: covalent adduct formation with OTUB1 protein.
T1 construct: His tag (N); made in house; host or cells: E. coli BL21-CodonPlus (DE3)-RIPIL
T1 sequence (Q96FW1 whole entry): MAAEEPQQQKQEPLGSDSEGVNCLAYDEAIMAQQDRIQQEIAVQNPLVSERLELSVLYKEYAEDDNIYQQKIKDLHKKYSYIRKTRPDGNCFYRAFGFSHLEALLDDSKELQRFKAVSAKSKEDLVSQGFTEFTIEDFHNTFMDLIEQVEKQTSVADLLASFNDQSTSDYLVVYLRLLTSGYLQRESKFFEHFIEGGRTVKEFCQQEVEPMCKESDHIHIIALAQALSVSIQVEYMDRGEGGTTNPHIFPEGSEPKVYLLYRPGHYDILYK
Type: binding
Experimental: OTUB1 covalent binders were tested for their ability to form the covalent adduct with OTUB1 protein using a mass-spectrometry based assay.
Example 389. Assessment of the Covalent Modification of OTUB1 Protein by Selected OTUB1 Covalent Binders Using a Mass Spectrometry-Based Assay (FIG. 1)
OTUB1 protein (10 μM) was incubated with selecting compounds (2500 μM) at RT for 1 h. The adduct was qualified by mass spectrometry-based assays.
Example 398. Assessment of the Covalent Modification of OTUB1 Protein by Selected CFTR Based Bivalent Compounds Using Mass Spectrometry-Based Assay (FIG. 10)
OTUB1 protein (10 μM) was incubated with selecting bivalent compounds (2500 μM) at RT for 1 h. The adduct was qualified by mass spectrometry-based assays.
Human OTUB1 wild-type (NM_017670.3) and C23S mutation genes were optimized based on the codon preference of E. coli, synthesized and cloned into pET15b vector with a N-terminal His tag by Genscript, respectively. The plasmid was transferred to BL21-CodonPlus (DE3)-RIPIL Competent Cell (230280, Agilent Technologies) and the recombinant protein was induced expressed by 0.5 mM IPTG at 16° C. with shaking 200 rpm for 18 h. Induced cells were harvested by centrifugation and resuspended in cold lysis buffer (50 mM Tris-H—Cl pH 7.5, 150 mM NaCl, 25 mM imidazole pH 7.5, 0.01% IGEPAL, 5% Glycerol) in the presence of Pierce Protease Inhibitor tablets (PIA32963, Fisher Scientific) and 2 mM TCEP pH 7.5.
The cells were lysed by sonication, clarified by centrifugation, and the filtered supernatant loaded onto a 5 ml HisTrap HP affinity column (17524802, Cytiva) in AKTA system. The His-recombinant protein bound to column was washed using buffer A (50 mM Tris-HCl pH 7.5, 150 mM NaCl, 25 mM imidazole pH 7.5, 0.01% IGEPAL, 5% Glycerol) and eluted with buffer B (50 mM Tris-HCl pH 7.5, 150 mM NaCl, 250 mM imidazole pH 7.5, 0.01% IGEPAL, 5% Glycerol). The eluted fractions containing OTUB1 protein were concentrated and subjected to size exclusion chromatography using a 320 mL HiLoad 26/600 Superdex 200 pg column (28989336, Cytiva) under the buffer condition ([…] Tris-HCl pH 7.5, 150 mM NaCl, and 2 mM TCEP pH 7.5). The eluted fractions containing OTUB1 protein were concentrated, divided into aliquots and stored at −80° C. freezer for further usage.
Quality control of the OTUB1 proteins was performed by SDS-PAGE, Nanodrop and mass spectrometry.
Mass Spectrometry-Based Analysis of OTUB1-Covalent Ligand Adducts
To screen the covalent ligands, recombinant OTUB1 protein (10 μM) was respectively incubated with DMSO, EN523 or seven novel ligands (2500 μM) in reaction buffer (50 mM Tris-HCl pH 7.5, 150 mM NaCl, and 0.5 mM TCEP pH 7.5) for 1 h at room temperature.
Then, the total 500 μL reaction solution was exchanged and concentrated to 50 μL 50 mM ammonium bicarbonate with a 10 kDa MWCO centrifugal filter unit (UFC901024, Millipore) and diluted in MS buffer (30% ACN, 0.2% FA) to a final concentration of […]. Mass spectrometry detection was performed by an Agilent LC/MSD Time-Of-Flight (TOF) mass spectrometer (Agilent Technologies) equipped with an electrospray ion source. The data was analyzed by TOF Protein Confirmation Software. All experiments were performed in duplicate.

SMILES	% of OTUB1 modified
CN(C)C/C=C/C(=O)N1CC2(C1)CN(c1cc3ccccc3s1)C2 [XS185-46, (E)-1-(6-(benzo[b]thiophen-2-yl)-2,6-diazaspiro[3.3]heptan-2-yl)-4-(dimethylamino)but-2-en-1-one]	1%
Cc1ccc(C(=O)N2CCN(C(=O)/C=C/CN(C)C)CC2)s1 [XS185-64, (E)-4-(dimethylamino)-1-(4-(5-methylthiophene-2-carbonyl)piperazin-1-yl)but-2-en-1-one]	20%
Cc1ccc(C(=O)N2CCC(NC(=O)/C=C/CN(C)C)CC2)s1 [XS185-65, (E)-4-(dimethylamino)-N-(1-(5-methylthiophene-2-carbonyl)piperidin-4-yl)but-2-enamide]	1%
Cc1ccc(C(=O)N2CC3(CCN(C(=O)/C=C/CN(C)C)CC3)C2)s1 [XS185-66, (E)-4-(dimethylamino)-1-(2-(5-methylthiophene-2-carbonyl)-2,7-diazaspiro[3.5]nonan-7-yl)but-2-en-1-one]	20%
Cc1ccc(C(=O)N2C3CC2CN(C(=O)/C=C/CN(C)C)C3)s1 [XS185-67, (E)-4-(dimethylamino)-1-(6-(5-methylthiophene-2-carbonyl)-3,6-diazabicyclo[3.1.1]heptan-3-yl)but-2-en-1-one]	15%
Cc1ccc(C(=O)N2CC3(CN(C(=O)/C=C/CN(C)C)C3)C2)s1 [XS185-69, (E)-4-(dimethylamino)-1-(6-(5-methylthiophene-2-carbonyl)-2,6-diazaspiro[3.3]heptan-2-yl)but-2-en-1-one]	30%
Cc1ccc(C(=O)N2CC3CCC(C2)N3C(=O)/C=C/CN(C)C)s1 [XS185-70, (E)-4-(dimethylamino)-1-(3-(5-methylthiophene-2-carbonyl)-3,8-diazabicyclo[3.2.1]octan-8-yl)but-2-en-1-one]	20%
Cc1ccc(C(=O)N2C3CCC2CN(C(=O)/C=C/CN(C)C)C3)s1 [XS185-71, (E)-4-(dimethylamino)-1-(8-(5-methylthiophene-2-carbonyl)-3,8-diazabicyclo[3.2.1]octan-3-yl)but-2-en-1-one]	15%
Cc1ccc(C(=O)N2CC3CC(C2)N3C(=O)/C=C/CN(C)C)s1 [XS185-72, (E)-4-(dimethylamino)-1-(3-(5-methylthiophene-2-carbonyl)-3,6-diazabicyclo[3.1.1]heptan-6-yl)but-2-en-1-one]	90%
Cc1ccc(N2CC3CCC(C2=O)N3C(=O)/C=C/CN(C)C)s1 (stereo not shown) [XS185-75, (E)-8-(4-(dimethylamino)but-2-enoyl)-3-(5-methylthiophen-2-yl)-3,8-diazabicyclo[3.2.1]octan-2-one]	98%
CN(C)C/C=C/C(=O)N1CCN(c2cc3ccccc3o2)C(=O)C1 [XS185-78, (E)-1-(benzofuran-2-yl)-4-(4-(dimethylamino)but-2-enoyl)piperazin-2-one]	40%
CN(C)C/C=C/C(=O)N1CCN(c2csc3ccccc23)C(=O)C1 [XS185-86, (E)-1-(benzo[b]thiophen-3-yl)-4-(4-(dimethylamino)but-2-enoyl)piperazin-2-one]	80%
C=C(C#N)CN1CCN(c2ccc(C)s2)C(=O)C1 [XS185-87, 2-((4-(5-methylthiophen-2-yl)-3-oxopiperazin-1-yl)methyl)acrylonitrile]	1%
CN(C)C/C=C/C(=O)N1CC(C(=O)Nc2cc3ccccc3s2)C1 [XS185-90, (E)-N-(benzo[b]thiophen-2-yl)-1-(4-(dimethylamino)but-2-enoyl)azetidine-3-carboxamide]	60%
CN(C)C/C=C/C(=O)N1CC2(CC(C(=O)Nc3cc4ccccc4s3)C2)C1 [XS185-91, (E)-N-(benzo[b]thiophen-2-yl)-2-(4-(dimethylamino)but-2-enoyl)-2-azaspiro[3.3]heptane-6-carboxamide]	25%
Cc1ccc(C(=O)N2CCC3(CC2)CN(C(=O)/C=C/CN(C)C)C3)s1 [XS185-96, (E)-4-(dimethylamino)-1-(7-(5-methylthiophene-2-carbonyl)-2,7-diazaspiro[3.5]nonan-2-yl)but-2-en-1-one]	10%
Cc1ccc(C(=O)N2CCC3(CN(C(=O)/C=C/CN(C)C)C3)C2)s1 [XS185-97, (E)-4-(dimethylamino)-1-(6-(5-methylthiophene-2-carbonyl)-2,6-diazaspiro[3.4]octan-2-yl)but-2-en-1-one]	25%
Cc1ccc(N2CCC3(CC2)CN(C(=O)/C=C/CN(C)C)C3)s1 [XS185-101, (E)-4-(dimethylamino)-1-(7-(5-methylthiophen-2-yl)-2,7-diazaspiro[3.5]nonan-2-yl)but-2-en-1-one]	23%
Cc1ccc(N2CC3(CCN(C(=O)/C=C/CN(C)C)CC3)C2)s1 [XS185-109, (E)-4-(dimethylamino)-1-(2-(5-methylthiophen-2-yl)-2,7-diazaspiro[3.5]nonan-7-yl)but-2-en-1-one]	1%
CN(C)C/C=C/C(=O)N1CC2(CC(C(=O)Nc3cc4c(s3)CCCC4)C2)C1 [XS185-114, (E)-2-(4-(dimethylamino)but-2-enoyl)-N-(4,5,6,7-tetrahydrobenzo[b]thiophen-2-yl)-2-azaspiro[3.3]heptane-6-carboxamide]	18%
CN(C)C/C=C/C(=O)N1CCN(c2cc3ccccc3[nH]2)C(=O)C1 [XS185-116, (E)-4-(4-(dimethylamino)but-2-enoyl)-1-(1H-indol-2-yl)piperazin-2-one]	55%
CN(C)C/C=C/C(=O)N1CC(C(=O)NC2CCCC2)C1 [XS185-131, (E)-N-cyclopentyl-1-(4-(dimethylamino)but-2-enoyl)azetidine-3-carboxamide]	18%
CN(C)C/C=C/C(=O)N1CC2(CCN(c3cc4ccccc4s3)CC2)C1 [XS185-147, (E)-1-(7-(benzo[b]thiophen-2-yl)-2,7-diazaspiro[3.5]nonan-2-yl)-4-(dimethylamino)but-2-en-1-one]	15%
Cc1ccc(C(=O)NC2CN(C(=O)/C=C/CN(C)C)C2)s1 [XS190-9, (E)-N-(1-(4-(dimethylamino)but-2-enoyl)azetidin-3-yl)-5-methylthiophene-2-carboxamide]	38%
CN(C)C/C=C/C(=O)N1C2CCC1C(=O)N(c1cc3ccccc3s1)C2 (stereo not shown) [XS190-38, (E)-3-(benzo[b]thiophen-2-yl)-8-(4-(dimethylamino)but-2-enoyl)-3,8-diazabicyclo[3.2.1]octan-2-one]	100%
CN(C)C/C=C/C(=O)N1C2CCC1C(=O)N(c1csc3ccccc13)C2 (stereo not shown) [XS190-44, (E)-3-(benzo[b]thiophen-3-yl)-8-(4-(dimethylamino)but-2-enoyl)-3,8-diazabicyclo[3.2.1]octan-2-one]	97%
CN(C)C/C=C/C(=O)N1C2CCC1C(=O)N(c1ccc(-c3ccccc3)s1)C2 (stereo not shown) [XS190-45, (E)-8-(4-(dimethylamino)but-2-enoyl)-3-(5-phenylthiophen-2-yl)-3,8-diazabicyclo[3.2.1]octan-2-one]	90%
CN(C)C/C=C/C(=O)N1C2CC1CN(C(=O)c1cc3ccccc3s1)C2 [XS190-46, (E)-1-(3-(benzo[b]thiophene-2-carbonyl)-3,6-diazabicyclo[3.1.1]heptan-6-yl)-4-(dimethylamino)but-2-en-1-one]	90%
